According to patent publication US11771651B2, “Liposomes and uses thereof” (Academia Sinica, priority 2018, dated 2023):
Several values for one entry are separate records, joined by “and”; a condition that tells them apart may be missing. Identical values can stand only once.

Legend:
Format in all cases: cell-based, human
KB cells [1] = assay: MTT assay, phosphatase-responsive liposomes; details: free DOX, ALP status not stated
Description: In the study of the phosphatase-responsive liposomes, KB cells (2×10^4 cells per well) were seeded on a 96 well plate in DMEM with 10% FBS at 37° C. for 20 hours. Then, the medium was replaced by the MEM medium (without FBS) containing DOX liposome, 3-MDL, 4-MDL, 5-MDL, 6-MDL, 7-MDL or free DOX, with or without ALP (50 U/ml), and then incubated at 37° C. for 20 hours. The medium was further replaced to MEM with 10% FBS for another 20 hour incubation at 37° C. 20 μl of MTT stock solution (5 mg/ml in PBS) was added to each well incubated at 37° C. for 2 hours, then removed 170 μl of culture medium followed by the addition of 200 μl of DMSO to each well to dissolve the purple formazan product at 37° C. on a 120 rpm reciprocal shaker for 10 minutes. The absorbance of the formazan product in DMSO solution at 540 nm was measured by plate reader to estimate cellular viability.

KB cells [2] = assay: MTT assay, photo-responsive liposomes; details: DOX apparent concentration, 40 hours incubation
Description: Then, the medium was replaced by the MEM medium (without FBS) containing free DOX, or the MEM medium (without FBS) containing DDL or MDL, in the presence or absence of light irradiation (5 mW/cm^2, 4 minutes), and then incubated at 37° C. for additional 20 hours. The medium was further replaced to MEM with 10% FBS for another 20 hours incubation at 37° C. 20 μl of MTT stock solution (5 mg/ml in PBS) was added to each well incubated at 37° C. for 2 hours, then removed 170 μl of culture medium followed by the addition of 200 μl of DMSO to each well to dissolve the purple formazan product at 37° C. on a 120 rpm reciprocal shaker for 10 minutes. The absorbance of the formazan product in DMSO solution at 540 nm was measured by plate reader so as to estimate cellular viability.

KB cells [3] = assay: Endogenous ALP-induced liposomal DOX release by flow cytometer; details: 25 μM, 20 hours, data not shown
Description: The cell solution (100 μl) were diluted to 1 ml PBS for flow cytometry analysis.

- IC50 (KB cells [1]): 3000 nM
- IC50 (KB cells [2]; UV (irradiated 4 minutes)): 3000 nM and ~3000 nM
- IC50 (KB cells [2]; dark (non-irradiated)): 700 nM and ~700 nM
SMILES: COc1cccc2c1C(=O)c1c(O)c3c(c(O)c1C2=O)C[C@@](O)(C(=O)CO)C[C@@H]3O[C@H]1C[C@H](N)[C@H](O)[C@H](C)O1 [DOX, doxorubicin]
- DOX uptake (cellular DOX fluorescence) (KB cells [3]): 100%
